Assay results: US8258215B2, “Mixed alkyl-alkylaryl-phenyl phosphite polymer additive” (Dover Chemical Corporation, priority 2010, dated 2012)
Where two headings read alike, the source gives them in different places.

Tests used:
[1] = LLDPE; for High load Melt Flow Stability, 1st pass / High load Melt Flow Stability, 3rd pass / High load Melt Flow Stability, 5th pass: 190° C. (21.6 Kg), 900 ppm phosphite + 500 ppm Dovernox 76; for maintaining melt flow stability, in words: compared with TNPP (Table III)
Experimental: (§1) The polyolefin powder (polyethylene, polypropylene or high density polyethylene) is dry blended with the stabilizer formulation using a Waring blender. […] The masterbatch is then added to a preheated co-rotating twin screw extruder where the plastic is homogeneously mixed. Extrusion is typically performed at 260° C. for polyethylene (LLDPE) and polypropylene (PP) and at 250° C. for high density polyethylene (HDPE). The extruded plastic is cooled into a cold water bath, completely dried, and pelletized. The collected polymer pellets are the result of the first pass extrusion and are the starting material for all subsequent test protocols. The isolated pellets are added to the extruder repeatedly to generate the third and fifth pass material.
(§2) The melt flow rate was performed using the ASTM 1238-90b test method measured at 21.6 Kg/190° C. for LLDPE and HDPE compositions and at 2.16 Kg/230° C. for the PP compositions. The melt flow rate was complete on a Tinius Olsen extrusion plastometer.

[2] = LLDPE; 900 ppm phosphite + 500 ppm Dovernox 76
Experimental: as §1
(§3) Color analysis was performed on compression molded films or plaques with a Hunter Lab Ulstrascan XE machine. Observations were made with a D65 illuminant and 10° observer. Yellowness Index measurements were made in accord with ASTM D1925-70.

[3] = PP; 230° C. (21.6 Kg); phosphite 900 ppm
Experimental: as §1, §2

[4] = PP; phosphite 900 ppm
Experimental: as §1, §3

[5] = HDPE; 190° C. (21.6 Kg); phosphite 900 ppm
Experimental: as §1, §2

[6] = HDPE; 230° C.; phosphite 900 ppm
Experimental: as §1, §3

[7] = test system: estrogenic activity; experiment: Estrogenic activity by in-vivo testing

| Compound | High load Melt Flow Stability, 1st pass [1] | High load Melt Flow Stability, 3rd pass [1] | High load Melt Flow Stability, 5th pass [1] | YI (Yellowness Index) Color Stability, 1st pass [2] | YI (Yellowness Index) Color Stability, 3rd pass [2] | YI (Yellowness Index) Color Stability, 5th pass [2] | maintaining melt flow stability, in words [1] | High load Melt Flow Stability, 1st pass [3] | High load Melt Flow Stability, 3rd pass [3] | High load Melt Flow Stability, 5th pass [3] | Color Stability (YI), 1st pass [4] | Color Stability (YI), 3rd pass [4] | High load Melt Flow Stability, 1st pass [5] | High load Melt Flow Stability, 3rd pass [5] | High load Melt Flow Stability, 5th pass [5] | Color Stability (YI), 1st pass [6] | Color Stability (YI), 3rd pass [6] | Color Stability (YI), 5th pass [6] | estrogenic activity compared with nonylphenol [7] |
| --- | --- | --- | --- | --- | --- | --- | --- | --- | --- | --- | --- | --- | --- | --- | --- | --- | --- | --- | --- |
| Mixed C12-14 Alkyl, 2,4-dicumylphenyl Phosphite [Example 10] | 18.3 | 15.5 | 13.5 | −6.1 | −3.8 | −2.4 | – | – | – | – | – | – | – | – | – | – | – | – | – |
| Mixed C12-18 alkyl, p-cumylphenyl phosphite [Example 7] | 18.5 | 16.1 | 14.6 | −5.5 | −3.6 | −1.5 | performed exceptionally well | 24.2 | 34.2 | 44.4 | 7.0 | 10.0 | 23.6 | 22.2 | 17.1 | −0.6 | 1.4 | 6.4 | – |
| Mixed C10 alkyl, p-cumylphenyl phosphite [Example 3] | 17.1 | 13.4 | 12.2 | −4.2 | −2.9 | −1.1 | – | – | – | – | – | – | – | – | – | – | – | – | – |
| CC(C)(c1ccccc1)c1ccc(O)cc1 [para-cumylphenol] | – | – | – | – | – | – | – | – | – | – | – | – | – | – | – | – | – | – | does not show comparable estrogenic activity to nonylphenol |
| Mixed C12-14 alkyl, p-cumylphenyl phosphite [Example 2] | 17.7 | 15.7 | 14.0 | −5.4 | −3.5 | −1.5 | performed exceptionally well | 24.2 | 33.7 | 37.9 | 7.2 | 10.4 | 22.7 | 22.2 | 17.2 | 1.2 | 5.9 | 10.2 | – |
| Mixed C18 alkenyl, p-cumylphenyl phosphite [Example 4] | 18.1 | 14.8 | 13.4 | −5.8 | −3.8 | −1.4 | – | – | – | – | – | – | – | – | – | – | – | – | – |
| tris(nonylphenyl)phosphite [TNPP, reference compound] | 18.1 | 16.1 | 14.4 | −3.7 | −1.7 | 0.4 | – | 21.4 | 30.0 | 37.0 | 14.8 | 15.1 | 22.7 | 22.5 | 18.5 | −0.4 | 4.9 | 9.3 | – |
| Mixed C16-18 alkyl, p-cumylphenyl phosphite [Example 6] | 18.7 | 15.7 | 13.6 | −3.8 | −1.1 | 1.5 | – | – | – | – | – | – | – | – | – | – | – | – | – |
